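Where inhibition never reached the appropriate level, the endpoint shown equals the highest concentration tested. Otherwise, values were interpolated linearly from a five-concentration, 48-hour dose response in 96-well plates. GI50 marks 50% less growth. The concentration for full growth arrest is given as TGI.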
test system: DLD-1 colon; assay: NCI-60 cell line screen, 48 h

SMILES | GI50 [µM] | TGI [µM]
CC(=O)OCC1OC([S-])C(OC(C)=O)C(OC(C)=O)C1OC(C)=O.CC[PH+](CC)CC.CC[PH+](CC)CC.[Au].[Au] (centres undefined) | 0.174 | 0.49
O=C(C[n+]1ccccc1)NNC(=O)/C(=C/c1ccc2c(c1)OCO2)NC(=O)c1ccccc1 |  | > 62.2
Cc1cccc(NC(=O)/C=C/c2ccc(N(CCC#N)CCC#N)cc2C)c1 |  | > 100
Clc1ccc(-c2c(C3=NCCN3)nnn2-c2ccc(Cl)cc2)cc1 |  | > 100
Nc1ccc(C(=O)NN2C(=O)C(Cl)C2c2ccccc2Cl)cc1 (centres undefined) |  | 23

test system: A498 renal; assay: NCI-60 cell line screen, 48 h

SMILES | TGI [µM]
O=C(C[n+]1ccccc1)NNC(=O)/C(=C/c1ccc2c(c1)OCO2)NC(=O)c1ccccc1 | > 100
Cc1cccc(NC(=O)/C=C/c2ccc(N(CCC#N)CCC#N)cc2C)c1 | > 100
Clc1ccc(-c2c(C3=NCCN3)nnn2-c2ccc(Cl)cc2)cc1 | 38.4

test system: TK-10 renal; assay: NCI-60 cell line screen, 48 h

SMILES | GI50 [µM] | TGI [µM]
CC(=O)OCC1OC([S-])C(OC(C)=O)C(OC(C)=O)C1OC(C)=O.CC[PH+](CC)CC.CC[PH+](CC)CC.[Au].[Au] (centres undefined) | 0.717 | 1.69
O=C(C[n+]1ccccc1)NNC(=O)/C(=C/c1ccc2c(c1)OCO2)NC(=O)c1ccccc1 |  | > 100
Cc1cccc(NC(=O)/C=C/c2ccc(N(CCC#N)CCC#N)cc2C)c1 |  | > 100
Clc1ccc(-c2c(C3=NCCN3)nnn2-c2ccc(Cl)cc2)cc1 |  | 69.7
Nc1ccc(C(=O)NN2C(=O)C(Cl)C2c2ccccc2Cl)cc1 (centres undefined) |  | 30.1
O=C(CCC(=O)Nc1cccc(Cl)c1)CC(=O)c1ccc(Cl)cc1 |  | > 100

test system: HL-60(TB) leukemia; assay: NCI-60 cell line screen, 48 h

SMILES | TGI [µM]
CC(=O)OCC1OC([S-])C(OC(C)=O)C(OC(C)=O)C1OC(C)=O.CC[PH+](CC)CC.CC[PH+](CC)CC.[Au].[Au] (centres undefined) | 0.0214
O=C(C[n+]1ccccc1)NNC(=O)/C(=C/c1ccc2c(c1)OCO2)NC(=O)c1ccccc1 | 64.8
Cc1cccc(NC(=O)/C=C/c2ccc(N(CCC#N)CCC#N)cc2C)c1 | > 100
Clc1ccc(-c2c(C3=NCCN3)nnn2-c2ccc(Cl)cc2)cc1 | 39.1
O=C(CCC(=O)Nc1cccc(Cl)c1)CC(=O)c1ccc(Cl)cc1 | > 100

test system: MOLT-4 leukemia; assay: NCI-60 cell line screen, 48 h

SMILES | GI50 [µM] | TGI [µM]
CC(=O)OCC1OC([S-])C(OC(C)=O)C(OC(C)=O)C1OC(C)=O.CC[PH+](CC)CC.CC[PH+](CC)CC.[Au].[Au] (centres undefined) | 0.163 | 0.52
O=C(C[n+]1ccccc1)NNC(=O)/C(=C/c1ccc2c(c1)OCO2)NC(=O)c1ccccc1 |  | 82.7
Cc1cccc(NC(=O)/C=C/c2ccc(N(CCC#N)CCC#N)cc2C)c1 |  | > 100
Clc1ccc(-c2c(C3=NCCN3)nnn2-c2ccc(Cl)cc2)cc1 |  | 29
Nc1ccc(C(=O)NN2C(=O)C(Cl)C2c2ccccc2Cl)cc1 (centres undefined) |  | 8.1
O=C(CCC(=O)Nc1cccc(Cl)c1)CC(=O)c1ccc(Cl)cc1 |  | > 100

test system: MALME-3M melanoma; assay: NCI-60 cell line screen, 48 h

SMILES | GI50 [µM] | TGI [µM]
CC(=O)OCC1OC([S-])C(OC(C)=O)C(OC(C)=O)C1OC(C)=O.CC[PH+](CC)CC.CC[PH+](CC)CC.[Au].[Au] (centres undefined) | 0.137 | 0.32
O=C(C[n+]1ccccc1)NNC(=O)/C(=C/c1ccc2c(c1)OCO2)NC(=O)c1ccccc1 |  | > 100
Cc1cccc(NC(=O)/C=C/c2ccc(N(CCC#N)CCC#N)cc2C)c1 |  | > 100
Clc1ccc(-c2c(C3=NCCN3)nnn2-c2ccc(Cl)cc2)cc1 |  | 33.9
Nc1ccc(C(=O)NN2C(=O)C(Cl)C2c2ccccc2Cl)cc1 (centres undefined) |  | 31.4
O=C(CCC(=O)Nc1cccc(Cl)c1)CC(=O)c1ccc(Cl)cc1 |  | > 100

test system: SW-620 colon; assay: NCI-60 cell line screen, 48 h

SMILES | GI50 [µM] | TGI [µM]
CC(=O)OCC1OC([S-])C(OC(C)=O)C(OC(C)=O)C1OC(C)=O.CC[PH+](CC)CC.CC[PH+](CC)CC.[Au].[Au] (centres undefined) | 0.199 | 0.493
O=C(C[n+]1ccccc1)NNC(=O)/C(=C/c1ccc2c(c1)OCO2)NC(=O)c1ccccc1 |  | > 100
Cc1cccc(NC(=O)/C=C/c2ccc(N(CCC#N)CCC#N)cc2C)c1 |  | > 100
Clc1ccc(-c2c(C3=NCCN3)nnn2-c2ccc(Cl)cc2)cc1 |  | 73.8
Nc1ccc(C(=O)NN2C(=O)C(Cl)C2c2ccccc2Cl)cc1 (centres undefined) |  | 10.7
O=C(CCC(=O)Nc1cccc(Cl)c1)CC(=O)c1ccc(Cl)cc1 |  | > 100

test system: NCI-H23 lung; assay: NCI-60 cell line screen, 48 h

SMILES | GI50 [µM] | TGI [µM]
CC(=O)OCC1OC([S-])C(OC(C)=O)C(OC(C)=O)C1OC(C)=O.CC[PH+](CC)CC.CC[PH+](CC)CC.[Au].[Au] (centres undefined) | 0.245 | 1.07
O=C(C[n+]1ccccc1)NNC(=O)/C(=C/c1ccc2c(c1)OCO2)NC(=O)c1ccccc1 |  | > 100
Cc1cccc(NC(=O)/C=C/c2ccc(N(CCC#N)CCC#N)cc2C)c1 |  | > 100
Clc1ccc(-c2c(C3=NCCN3)nnn2-c2ccc(Cl)cc2)cc1 |  | > 100
Nc1ccc(C(=O)NN2C(=O)C(Cl)C2c2ccccc2Cl)cc1 (centres undefined) |  | 24.9
O=C(CCC(=O)Nc1cccc(Cl)c1)CC(=O)c1ccc(Cl)cc1 |  | > 100

test system: HCT-15 colon; assay: NCI-60 cell line screen, 48 h

SMILES | GI50 [µM] | TGI [µM]
CC(=O)OCC1OC([S-])C(OC(C)=O)C(OC(C)=O)C1OC(C)=O.CC[PH+](CC)CC.CC[PH+](CC)CC.[Au].[Au] (centres undefined) | 0.165 | 0.452
O=C(C[n+]1ccccc1)NNC(=O)/C(=C/c1ccc2c(c1)OCO2)NC(=O)c1ccccc1 |  | > 63.5
Cc1cccc(NC(=O)/C=C/c2ccc(N(CCC#N)CCC#N)cc2C)c1 |  | > 100
Clc1ccc(-c2c(C3=NCCN3)nnn2-c2ccc(Cl)cc2)cc1 |  | > 100
Nc1ccc(C(=O)NN2C(=O)C(Cl)C2c2ccccc2Cl)cc1 (centres undefined) |  | 10.2
O=C(CCC(=O)Nc1cccc(Cl)c1)CC(=O)c1ccc(Cl)cc1 |  | > 100

test system: M19-MEL melanoma; assay: NCI-60 cell line screen, 48 h

SMILES | TGI [µM]
CC(=O)OCC1OC([S-])C(OC(C)=O)C(OC(C)=O)C1OC(C)=O.CC[PH+](CC)CC.CC[PH+](CC)CC.[Au].[Au] (centres undefined) | 0.806
O=C(C[n+]1ccccc1)NNC(=O)/C(=C/c1ccc2c(c1)OCO2)NC(=O)c1ccccc1 | > 100
Cc1cccc(NC(=O)/C=C/c2ccc(N(CCC#N)CCC#N)cc2C)c1 | > 100
Clc1ccc(-c2c(C3=NCCN3)nnn2-c2ccc(Cl)cc2)cc1 | 30.5
Nc1ccc(C(=O)NN2C(=O)C(Cl)C2c2ccccc2Cl)cc1 (centres undefined) | 20.5

test system: OVCAR-4 ovarian; assay: NCI-60 cell line screen, 48 h

SMILES | GI50 [µM] | TGI [µM]
CC(=O)OCC1OC([S-])C(OC(C)=O)C(OC(C)=O)C1OC(C)=O.CC[PH+](CC)CC.CC[PH+](CC)CC.[Au].[Au] (centres undefined) | 0.506 | 1.88
O=C(C[n+]1ccccc1)NNC(=O)/C(=C/c1ccc2c(c1)OCO2)NC(=O)c1ccccc1 |  | > 94.5
Cc1cccc(NC(=O)/C=C/c2ccc(N(CCC#N)CCC#N)cc2C)c1 |  | > 100
Clc1ccc(-c2c(C3=NCCN3)nnn2-c2ccc(Cl)cc2)cc1 |  | > 100
Nc1ccc(C(=O)NN2C(=O)C(Cl)C2c2ccccc2Cl)cc1 (centres undefined) |  | 27.1
O=C(CCC(=O)Nc1cccc(Cl)c1)CC(=O)c1ccc(Cl)cc1 |  | > 100

test system: M14 melanoma; assay: NCI-60 cell line screen, 48 h

SMILES | GI50 [µM] | TGI [µM]
CC(=O)OCC1OC([S-])C(OC(C)=O)C(OC(C)=O)C1OC(C)=O.CC[PH+](CC)CC.CC[PH+](CC)CC.[Au].[Au] (centres undefined) | 0.14 | 0.322
O=C(C[n+]1ccccc1)NNC(=O)/C(=C/c1ccc2c(c1)OCO2)NC(=O)c1ccccc1 |  | > 100
Cc1cccc(NC(=O)/C=C/c2ccc(N(CCC#N)CCC#N)cc2C)c1 |  | > 100
Clc1ccc(-c2c(C3=NCCN3)nnn2-c2ccc(Cl)cc2)cc1 |  | 31.7
Nc1ccc(C(=O)NN2C(=O)C(Cl)C2c2ccccc2Cl)cc1 (centres undefined) |  | 25.9
O=C(CCC(=O)Nc1cccc(Cl)c1)CC(=O)c1ccc(Cl)cc1 |  | > 100

test system: RXF 393 renal; assay: NCI-60 cell line screen, 48 h

SMILES | GI50 [µM] | TGI [µM]
CC(=O)OCC1OC([S-])C(OC(C)=O)C(OC(C)=O)C1OC(C)=O.CC[PH+](CC)CC.CC[PH+](CC)CC.[Au].[Au] (centres undefined) | 0.0434 | 0.197
O=C(C[n+]1ccccc1)NNC(=O)/C(=C/c1ccc2c(c1)OCO2)NC(=O)c1ccccc1 |  | > 83.9
Clc1ccc(-c2c(C3=NCCN3)nnn2-c2ccc(Cl)cc2)cc1 |  | 75.8
Nc1ccc(C(=O)NN2C(=O)C(Cl)C2c2ccccc2Cl)cc1 (centres undefined) |  | 20.1

test system: ACHN renal; assay: NCI-60 cell line screen, 48 h

SMILES | GI50 [µM] | TGI [µM]
CC(=O)OCC1OC([S-])C(OC(C)=O)C(OC(C)=O)C1OC(C)=O.CC[PH+](CC)CC.CC[PH+](CC)CC.[Au].[Au] (centres undefined) | 1.01 | 2.38
O=C(C[n+]1ccccc1)NNC(=O)/C(=C/c1ccc2c(c1)OCO2)NC(=O)c1ccccc1 |  | > 100
Cc1cccc(NC(=O)/C=C/c2ccc(N(CCC#N)CCC#N)cc2C)c1 |  | > 100
Clc1ccc(-c2c(C3=NCCN3)nnn2-c2ccc(Cl)cc2)cc1 |  | > 100
Nc1ccc(C(=O)NN2C(=O)C(Cl)C2c2ccccc2Cl)cc1 (centres undefined) |  | 30
O=C(CCC(=O)Nc1cccc(Cl)c1)CC(=O)c1ccc(Cl)cc1 |  | > 100

test system: OVCAR-8 ovarian; assay: NCI-60 cell line screen, 48 h

SMILES | GI50 [µM] | TGI [µM]
CC(=O)OCC1OC([S-])C(OC(C)=O)C(OC(C)=O)C1OC(C)=O.CC[PH+](CC)CC.CC[PH+](CC)CC.[Au].[Au] (centres undefined) | 0.371 | 1.52
O=C(C[n+]1ccccc1)NNC(=O)/C(=C/c1ccc2c(c1)OCO2)NC(=O)c1ccccc1 |  | > 85
Cc1cccc(NC(=O)/C=C/c2ccc(N(CCC#N)CCC#N)cc2C)c1 |  | > 100
Clc1ccc(-c2c(C3=NCCN3)nnn2-c2ccc(Cl)cc2)cc1 |  | > 100
Nc1ccc(C(=O)NN2C(=O)C(Cl)C2c2ccccc2Cl)cc1 (centres undefined) |  | 10.8
O=C(CCC(=O)Nc1cccc(Cl)c1)CC(=O)c1ccc(Cl)cc1 |  | > 100

— PubChem BioAssay (NCI)
